Results on 1 compound are retold here after patent publication US20070021351A1, “Liver/plasma concentration ratio for dosing hepatitis C virus protease inhibitor” (Schering Corporation, priority 2005, published 2007).

Series [1] is described as follows: Liver versus plasma concentration in monkeys (non-GLP assay). It counts as in vivo. As to conditions: about 24 hours after dosing. The protocol: For the purpose of the present invention and the data presented herein, the liver to plasma ratio is calculated by determining the IC90 of a compound and inferring the concentration of the compound in the liver based on the concentration of the compound which causes a 90% decrease in viral load. […] It is known that concentrations of the compounds of Formulae I-XXVI in the liver of rats are about thirty to fifty times greater than plasma concentrations, whereas concentrations in the brain are below detection. In monkeys, concentration of the compound of Formula Ia determined by non-GLP assay of plasma sample taken about 24 hours after dosing of the compound was about five times greater in the liver than in plasma.

A short description of another series: Tissue distribution. It counts as in vivo. As to conditions: liver as well as extra-hepatic sites.
Another series relates to HCV. The series can be described thus: Suppression of virus in serum after about two weeks of administration. It counts as in vivo. The note with it: threshold of detectability.
Series [2] is described as follows: Example 2: food-effect crossover study, 600 mg single dose, healthy adult subjects. It counts as in vivo, human. How it is done: This was a randomized, open-label, single-dose, two-treatment (fed or fasted), two-period, two-sequence crossover study of the effect of food on the bioavailability of compound of Formula Ia in 23 healthy adult male and female subjects. The primary pharmacokinetic parameters were AUC(I) and Cmax for compound of Formula Ia. The study included a 7-day wash-out period between treatment periods.
Subjects were confined at the study site at least 14 hours prior to each treatment (Day-1). On the morning of Day 1, following a 10-hour overnight fast, subjects were randomized to receive in a particular order Treatment A and Treatment B: • Treatment A: compound of Formula Ia 600 mg (6×100 mg capsules) PO following an overnight fast. • Treatment B: compound of Formula Ia 600 mg (6×100 mg capsules) PO within 20 minutes following the completion of a standard high-fat breakfast. There was a 7-day wash-out period between receiving treatments.
Subjects receiving Treatment A received a formulation of compound of Formula Ia comprised of compound of Formula Ia and a pharmaceutically acceptable carrier, such as microcrystalline cellulose, while continuing to fast, while subjects randomized to Treatment B consumed a standardized high-fat meal prior to compound administration (within 20 minutes prior to the compound administration). The capsules along with approximately 240 mL of water were swallowed whole, not chewed or crushed. […] Water was permitted as desired except for 1 hour before and after compound administration. A washout period of at least 7 days separated the two treatment periods. Upon return to the clinic, subjects underwent the same procedures as the first period and continued the randomization sequence (subjects who received compound of Formula Ia fasted in Period 1 and then received compound of Formula Ia under fed conditions in Period 2, and vice versa).
Blood samples (7 mL each) for the determination of compound of Formula Ia levels were drawn immediately prior to dosing (0 hour), and at 0.5, 1, 1.5, 2, 2.5, 3, 4, 5, 6, 8, 12, 24, 36, and 48 hours after dosing. The blood samples were collected into tubes containing EDTA. The samples were centrifuged at 1500 g for 10 minutes to obtain plasma and the plasma samples were frozen at −20° C. and maintained in the frozen state until assayed.
Plasma concentrations of compound of Formula Ia were determined using a validated liquid chromatography tandem mass spectrometry (LC-MS/MS) method. The assay lower limit of quantitation (LLOQ) was 0.50 ng/mL and the method was validated over the concentration range of 0.50 to 1000 ng/mL.
The mean and percent coefficient of variation (% CV) were calculated for plasma concentrations of compound of Formula Ia at each time point. Concentration values less than the assay LLOQ were reported as, and set to zero in the tables and calculations. The plasma concentration-time data for compound of Formula Ia were subjected to pharmacokinetic analysis by noncompartmental methods using WinNonlin software. Nominal sampling times were used for pharmacokinetic analysis, since none of the pharmacokinetic sampling time deviations were >10% of the nominal times. For each subject, the following pharmacokinetic parameters were determined for compound of Formula Ia: maximum plasma concentration (Cmax), time of maximum observed plasma concentration (Tmax), the final quantifiable sampling time (tf), area under the plasma concentration-time curve from time 0 to tf (AUC[tf]), AUC(I) (AUC[tf]+C[tf]estimated/K) and Vd/F. The K and C(tf)estimated are defined as terminal elimination rate constant and estimated concentration at final quantifiable sample, respectively. Terminal phase half-life (t½=In2/K) and apparent clearance (CL/F=Dose/AUC[I]) were also determined. Cmax, Tmax and tf were the observed values. […]

Series [3] concerns HCV-RNA viral load (genotype 1). The series can be described thus: Example 3: pharmacodynamics, effect on HCV-RNA viral load. It counts as in vivo. The note with it: 400 mg TID. The protocol: Multiple escalating doses of compound of Formula Ia were administered for 14 days to HCV positive subjects who were genotype 1 Interferon-a (with or without ribavirin) non responders. In a randomized, placebo controlled, third party blind study, multiple doses of 100 mg BID, 200 mg BID, 400 mg BID, 400 mg TID, and 600 mg TID of compound of Formula Ia or placebo in a 3:1 ratio with or without food were evaluated. […]
Serial HCV-RNA data were evaluated for antiviral activity and for the change from baseline in the serum HCV RNA levels.

Regarding `CC(C)(C)NC(=O)N[C@H](C(=O)N1C[C@H]2[C@@H]([C@H]1C(=O)NC(CC1CCC1)C(=O)C(N)=O)C2(C)C)C(C)(C)C` (mixture of isomers) [Formula Ia, (1R,5S)-N-[3-Amino-1-(Cyclobutylmethyl)-2,3-Dioxopropyl]-3-[2(S)-[[[(1,1-Dimethylethyl)Amino]Carbonyl]Amino]-3,3-Dimethyl-1-Oxobutyl]-6,6-Dimethyl-3-Azabicyclo[3.1.0]Hexan-2(S)-Carboxamide], in series [1], the “concentration in liver relative to plasma” value is listed as “about five”. For the same compound, the tissue distribution entry in “Tissue distribution” was “distributes widely throughout the tissues of the body”. Also, in the series with HCV, the “virus level in serum” value is on record as less than 100 copies/ml. Also, the “apparent mean Vd/F, fed versus fasted (times lower)” value in series [2] (600 mg oral) is given as “about five”. Also, in series [2] (600 mg oral dose, fed and fasted states), the safety profile result is “low frequency of treatment emergent and treatment related AEs”. Further, in series [2] (600 mg single oral dose), the “delay of median Tmax, fed versus fasted” value is “approximately three”; the “median concentration at 8 hours, fed relative to fasted” value is given as “more than 4 fold”; the “median concentration at 12 hours, fed relative to fasted” value is 2 fold. Besides, in series [2] (600 mg single oral dose, fed, mean, n=19), the “AUC(I)” value was determined as 3697 ng·h/mL. Further, in series [2] (600 mg, female, n=10), the “AUC(l) ratio estimate, fed to fasted” value is 225%; the “AUC(tf) ratio estimate, fed to fasted” value is 229%; the “Cmax ratio estimate, fed to fasted” value was 170%. Also, the “increase of relative (oral) bioavailability (AUC) in the fed state” value in series [2] (600 mg, high-fat meal relative to fasted) is given as “over 100%”. In series [2] (600 mg, male, n=10), the “AUC(l) ratio estimate, fed to fasted” value is 202%; the “AUC(tf) ratio estimate, fed to fasted” value is on record as 205%; the “Cmax ratio estimate, fed to fasted” value is 155%. Also, in series [2] (600 mg, n=20), the “AUC(l) ratio estimate, fed to fasted” value is on record as 214%; the “AUC(tf) ratio estimate, fed to fasted” value is given as 217%; the “Cmax ratio estimate, fed to fasted” value is reported as 162%. The “absorption lag time in the fed state vs the fasted state” value in series [2] (in 12 of the 20 subjects who completed both periods) is more than 0.5 h. Besides, the “dose dependence of antiviral activity” value in series [3] (100 mg BID, 200 mg BID, 400 mg BID, all subjects) is listed as “antiviral activity increased in a dose-related manner”. For the same compound, in series [3] (14 days, genotype 1 interferon non responders), the “viral load reduction from baseline, average minimum reduction” value was 2 logs.
